The record followed here is US20230355542A1, “DRUG-ELUTING DEVICE WITH GENETIC AND CHEMICAL THERAPEUTICS FOR TREATING OR PREVENTING VASCULAR ACCESS DYSFUNCTIONS” (priority 2022, published 2023).

This assay deals with neointima formation in the venous arms of AV fistulae. As to the kind of experiment: systemic E2 in AV fistula model with experimentally induced chronic kidney disease. It is filed as in vivo. The note with it: systemic E2 100 ug/day, i.p; animals with experimentally induced CKD. How it is done:
Systemic administration of estradiol, i.e., E2 (Molecular Weight: 272.38 Formula: […] Dissolves in absolute Ethanol) requires weekly therapeutic injections ([Study 1:10 weeks old+OVX (ovariectomy)+1 week+NX (nephrectomy)+4 weeks+AVF+4 weeks (with systemic E2 [100 ug/day, i.p])+4 weeks]) that are not applicable in real-life clinical settings. […] The nanoparticle membrane disclosed herein may locally deliver nanoparticles for the carotid artery ligation model and potentially for the AV Fistula injury site, replacing weekly injections, without the requirement for elevated systemic levels of E2. Nanoparticles may be successfully delivered and retained in layers of carotid artery tissue on a mouse model with significant enhancement.

`C[C@]12CC[C@@H]3c4ccc(O)cc4CC[C@H]3[C@@H]1CC[C@@H]2O` [estrogen, estradiol]: the “effect on neointima formation” value is “inhibits neointima formation”.
